Laboratory results as given in publication PMC11429909, “Protein Structure Inspired Discovery of a Novel Inducer of Anoikis in Human Melanoma” (Cancers, 2024).
Entries after “also recorded” stand apart in the source; their conditions may differ.

Experiments:
Type in all cases: cell-based, human
SK-MEL-5 = test: Eight-day colony formation assay, melanoma SK-MEL-5
Experimental: In addition to screens, eight-day colony formation assays were conducted for certain experiments, as denoted. When measuring the effect of 5-fluorouracil (5FU) on HT29 colon cancer cells, the following final 5FU concentrations were examined: 0 (DMSO only), 0.0012, 0.012, 0.12, 0.82, 5.7, 20, and 40 µM. When measuring the effect of Dxr2-017 on melanoma cell growth, the following concentrations were examined: 0 (DMSO only), 0.001, 0.01, 0.1, 1.0, and 10.0 µM. Melanoma studies were performed on M14 and SK-MEL-5 human melanoma cell lines. For each Dxr2-017 concentration for each cell line, there were N = 3 replicates, and experiments were performed a total of 3 separate times (each with N = 3 replicates). The IC50 values were calculated using nonlinear regression analysis. Data from individual experiments were log-transformed and fitted to a dose–response curve using the four-parameter logistic model of GraphPad Prism 10 software. The IC50 values were determined using the dose–response inhibition function. IC50 values from each of three different experiments were used to calculate mean ± SEM.

M14 cells [1] = test: Cell cycle analysis by flow cytometry, M14; details: 20 nM, eight days
Experimental: A total of 1 × 10^4 M14 cells and 1 × 10^4 SK-MEL-5 cells were seeded into 10 cm culture dishes. Twenty-four hours later, cells were treated in replicates of N = 3, with Dxr2-017 at 20 nM for M14 and 50 nM for SK-MEL-5, or vehicle for controls for a total of eight days, with replacement of media, along with Dxr2-017 or vehicle, at day five. Cells were then collected, filtered to obtain single-cell suspensions, equal numbers of cells were fixed in 1 mL of 70% ethanol at 4 °C for 1 h, washed with PBS, and resuspended in 1 mL of Telford reagent (1 mM EDTA disodium salt, 2.5 U/mL RNAse A, 75 µM Propidium Iodide, and 0.1% Triton X-100 in PBS), and then incubated at 4 °C overnight. Cells were analyzed by flow cytometry (FACSCalibur analyzer, BD Biosciences). Cells were gated on forward scatter (FSC) versus side scatter (SCC) to remove debris, followed by gating of single cells using PI (FL2)-Area versus PI (FL2)-Width. Cell cycle analysis was performed on the PI (FL2)-Area parameter, and the percentages of cells within G0/G1, S, and G2/M phases were determined using Modfit LT 4.0.5.

M14 cells [2] = test: Adherent versus floating cell quantification from images, M14; details: 10 µM, 3-day treatment, mean ± SEM (N = 4), controls 16.3 ± 2.8%
Experimental: After treatment of M14 and SK-MEL-5 cells with different concentrations of Dxr2-017 or vehicle for 3 or 8 days, as denoted, cell images were captured at 20X in a transmitted light channel using the EVOS™ M5000 Imaging System (Invitrogen (Waltham, MA, USA)). Western blots were performed as previously described by us. Briefly, cells were collected and lysed using RIPA lysis buffer (25 mM Tris-HCl pH 7.6, 150 mM NaCl, 1% NP-40, 1% sodium deoxycholate, and 0.1% SDS; Thermo Scientific^TM (Waltham, MA, USA), #89900), supplemented with protease and phosphatase inhibitor cocktail (Thermo Scientific^TM, #78442) and 1 mM of PMSF. […]
Figure 8 Dxr2-017 inhibits melanoma cell growth through induction of anoikis. […] Data are expressed as the percent of untreated control and are the mean ± SEM of three separate experiments. […] M14 and SK-MEL-5 cells were treated for eight days with 20 nM and 50 nM of Dxr2-017, respectively, and the phase of the cell cycle was determined by flow cytometry. […] (D) Adherent and floating cells were quantified from captured images. Data are the mean ± SEM (N = 4), expressed as a percentage to total cells. * Denotes p-value ≤ 0.05 compared to respective floating or attached cells. […]
We then assessed whether Dxr2-017 induced apoptosis. […]

cleaved caspase 3 = test: Western blot for cleaved caspase 3, SK-MEL-5; details: up to 20 µM, three days
Experimental: (§1) After treatment of M14 and SK-MEL-5 cells with different concentrations of Dxr2-017 or vehicle for 3 or 8 days, as denoted, cell images were captured at 20X in a transmitted light channel using the EVOS™ M5000 Imaging System (Invitrogen (Waltham, MA, USA)). Western blots were performed as previously described by us. Briefly, cells were collected and lysed using RIPA lysis buffer (25 mM Tris-HCl pH 7.6, 150 mM NaCl, 1% NP-40, 1% sodium deoxycholate, and 0.1% SDS; Thermo Scientific^TM (Waltham, MA, USA), #89900), supplemented with protease and phosphatase inhibitor cocktail (Thermo Scientific^TM, #78442) and 1 mM of PMSF. Resultant Western blots were probed using antibodies against cleaved caspase 3 (Cell Signaling Technology (Danvers, MA, USA), #9664), pan-cadherin (Cell Signaling Technology, #4068), and β-actin (Santa Cruz (Santa Cruz, CA, USA), #sc-47778).
We then assessed whether Dxr2-017 induced apoptosis. We treated M14 and SK-MEL-5 cells with Dxr2-017 for three days at concentrations of up 10 and 20 µM, respectively, and measured cleaved caspase 3 using Western blot. […] In this assay, cells were grown in six-well plates and washed prior to lysis, and thus only adherent cells remained. […] Adherent cells are spread out and fusiform shaped, while detached/floating cells are round, as previously reported by us. […]

pan-cadherin = test: Western blot for pan-cadherin, M14
Experimental: as §1
These findings led us to compare cleaved caspase 3 between adherent cells and floating cells. Cleaved caspase 3 is an indicator of programmed cell death, and its triggering by loss of cell attachment is an established means of detecting anoikis. Adherent cells were prepared as above. […]

Compound: c1ccc2sc(-c3ccc(CNc4ccc5nnnn5n4)o3)nc2c1 [Dxr2-017]
- IC50 (SK-MEL-5; Homo sapiens, 192 h, SK-MEL-5 melanoma, mean ± SEM of three experiments): 51 ± 11 nM
- fold efficacy relative to bone marrow stem cells treated at 40 µM (SK-MEL-5; SK-MEL-5 IC50 versus eight-day bone marrow treatment at 40 µM): > 750 fold
- effect on cell cycle parameters (M14 cells [1]): little-to-no change in cell cycle parameters
- floating cell population, percentage to total cells (M14 cells [2]): 79.9 ± 7.4%
- cleaved caspase 3, adherent and floating cells combined (cleaved caspase 3): clear formation was observed
- cleaved caspase 3, adherent cells only (cleaved caspase 3): did not see any induction of cleaved caspase 3; also recorded: no formation of cleaved caspase 3
- cadherin expression (pan-cadherin): decreased cadherin expression in a concentration-dependent manner
